Assay results: patent publication US20080279936A1, “Estradiol metabolites for reduction of endothelin production” (The University of Pittsburgh, priority 2001, published 2008)
Where two headings read alike, the source gives them in different places.

Key:
[1] = test system: endothelin-1 (ET-1) synthesis in porcine coronary artery endothelial cells (PCAECs); assay: Stimulated (FCS, angiotensin II, thrombin, TNFα) ET-1 release into the medium by PCAECs (ELISA); assay type: cell-based; set-up: induction of ET-1 secretion (percentage increase vs vehicle-treated controls): dose or concentration left out as unconfirmed; settings: for inhibition of FCS-induced ET-1 secretion / inhibition of TNFα-induced ET-1 secretion / inhibition of angiotensin II-induced ET-1 secretion / inhibition of thrombin-induced ET-1 secretion / inhibition at 0.001 µM: 1 nmol/L; for reversal by ICI182780 of the compound's inhibitory effect on FCS-stimulated ET-1 secretion: ICI182780 50 μmol/L; for effectiveness in inhibiting basal and stimulated ET-1 secretion compared with estradiol: order of potency 2-methoxyestradiol>2-hydroxyestradiol>estradiol; for effect on FCS-induced ET-1 synthesis: 10 nmol/L; for inhibition at 0.001 µM: Sus scrofa, Endothelial cell; for induction of ET-1 secretion (percentage increase vs vehicle-treated controls): stimulus alone
From the text: (§1) Hearts from female pigs were obtained from a local slaughter house and placed in ice-cold oxygenated DMEM (Gibco, Rockville, Md. now Invitrogen, Carlsbad Calif., hereinafter “Gibco”) containing antibiotics (Gibco). The epicardial coronary arteries were isolated, and the fat and connective tissue were removed. Endothelial cells were isolated by collagenase/dispase digestion (Ohbayashi, A., et al., Biochem. Brophys. Res. Commun. 202:504 (1994), the disclosure of which is incorporated herein be reference (“Ohbayashi, et al.”)). The isolated cells were washed in DMEM/F12 medium (Gibco) supplemented with 10% fetal calf serum (“FCS”) (HyClone Laboratories, Logan, Utah) and endothelial cell growth supplement (Clonetics, Walkersville, Md.), and cells were grown to confluence under standard tissue culture conditions. The purity of the cultures, which was characterized by immunostaining with factor VIII antigen (Sigma, St. Louis, Mo.) and by assaying the preferential uptake of the fluorescent probe Dil-acetylated low density lipoprotein (Biomedical Technologies, Inc., Stoughton, Mass.), (Ohbayashi, et al.) was 98%. Cells were passaged by trypsinization, and cells in second and third passage were used for all experiments in this example.
(§2) To study the effects of estradiol and its metabolites on ET-1 synthesis in porcine coronary artery endothelial cells (“PCAECs”) (Gibco), confluent monolayers of PCAECs were washed twice with HBSS (Gibco) and treated with DMEM/F12 (gibco) supplemented with 0.4% bovine serum albumin (BSA) containing or lacking 0.001 to 1 μmol/L of estradiol, 2-hydroxyestradiol, or 2-methoxyestradiol (Steraloids, Newport, R.I.). […] The supernatants were collected for ET-1 analysis, and the samples were frozen at −70° C. until analyzed. ET-1 levels were measured with the BIOTRAK™ (Amersham Pharmacia Biotech Europe Gmbh, Dubendorf, Switzerland) high-sensitivity endothelin-1 human ELISA system.
Cells were also treated as above in the presence and absence of the estradiol receptor (“ER”) antagonist, ICI182780 (50 μmol/L; Tocris Cookson Ltd, Ballwin, Mo.). To analyze whether the inhibitory effects of estradiol were mediated by means of ER-β, the effects of genistein (0.001 to 10 μmol/L) (Sigma) were investigated. To evaluate whether the effects of estradiol were mimicked by various clinically used estrogens, the cells were treated as above, in the presence and absence of ICI182780, with 10 nmol/L of estradiol valerate, estradiol cypionate, estradiol benzoate, 17α-estradiol, estrone, estriol or estrone sulfate (all from Sigma), and the ET-1 synthesis in response to FCS (2.5%) was analyzed.

[2] = test system: endothelin-1 (ET-1) synthesis in porcine coronary artery endothelial cells (PCAECs); assay: Basal ET-1 release into the medium by PCAECs (ELISA); assay type: cell-based; settings: for effect on basal ET secretion: 2 nmol/L, PCAECs incubated 4, 8, 12 and 24 hours
From the text: as §1, §2
To analyze the effects of estradiol and its metabolites on the basal synthesis of ET-1, cells were pretreated with or without the various above-listed agents and with and without ICI182780 for 24 hours and were fed fresh DMEM/F12 supplemented with 0.4%; BSA (Sigma) and the respective treatments. The supernatants were collected after 4, 8, 12, and 24 hours and the ET-1 levels were analyzed.

[3] = test system: mitogen-activated protein kinase (MAPK) activity in PCAECs; assay: FCS-induced MAPK activity in PCAECs; assay type: cell-based, porcine
From the text: Hearts from female pigs were obtained from a local slaughter house and placed in ice-cold oxygenated DMEM (Gibco, Rockville, Md. now Invitrogen, Carlsbad Calif., hereinafter “Gibco”) containing antibiotics (Gibco). The epicardial coronary arteries were isolated, and the fat and connective tissue were removed. Endothelial cells were isolated by collagenase/dispase digestion (Ohbayashi, A., et al., Biochem. Brophys. Res. Commun. 202:504 (1994), the disclosure of which is incorporated herein be reference (“Ohbayashi, et al.”)). […] The purity of the cultures, which was characterized by immunostaining with factor VIII antigen (Sigma, St. Louis, Mo.) and by assaying the preferential uptake of the fluorescent probe Dil-acetylated low density lipoprotein (Biomedical Technologies, Inc., Stoughton, Mass.), (Ohbayashi, et al.) was 98%. Cells were passaged by trypsinization, and cells in second and third passage were used for all experiments in this example. […] Some cells were pretreated for 1 hour with ICI182780 before treatment with the test agents. After stimulation, the cells were washed with ice-cold PBS and extraction buffer (50 mmol/L β-glycerophosphate, 1.5 mmol/L EGTA, 1 mmol/L dithiothreitol, 100 μmol/L Na3VO4, 10 μg/mL aprotinin, 5 μg/mL pepstatin, […] leupeptin, and 1 mmol/L benzamidine) (all from Sigma), scraped off the plates, and sonicated for 20 seconds in 0.5 mL of extraction buffer. The extracts were collected, the cytosolic fractions were separated by centrifuging the extracts at 100,000×g for 20 minutes at 4° C., and the supernatants were diluted to a concentration of 1 mg protein/mL and stored at -70° C. for mitogen-activated protein kinase (“MAPK”) activity assays. The MAPK activity in the cytosolic extracts was quantified as described by Dubey, R. K., et al., Arterioscler. Thromb. Vasc. Biol. 20:964 (2000), the disclosure of which is incorporated herein by reference.

[4] = angiotensin II 100 nmol/L, 4 hours
[5] = 1 nmol/L, pretreated 24 hours, FCS 2.5%

C[C@]12CC[C@@H]3c4cc(O)c(O)cc4CC[C@H]3[C@@H]1CC[C@@H]2O [2-hydroxyestradiol, estra-1,3,5 (10)-triene-2,3,17-triol (17β)]
inhibition of FCS-induced ET-1 secretion ([1]; FCS 2.5%, 4 hours): 31% | inhibition of TNFα-induced ET-1 secretion ([1]; TNFα 10 ng/mL, 4 hours): 35% | inhibition of angiotensin II-induced ET-1 secretion [1, 4]: 33% | inhibition of thrombin-induced ET-1 secretion ([1]; thrombin 4 U/mL, 4 hours): 40% | reversal by ICI182780 of the compound's inhibitory effect on FCS-stimulated ET-1 secretion ([1]; FCS 2.5%, 4 hours): not | effectiveness in inhibiting basal and stimulated ET-1 secretion compared with estradiol [1]: more effective | effect on basal ET secretion [2]: inhibited | inhibition of FCS-induced MAPK activity [3, 5]: 34±4% | potency in inhibiting FCS-induced MAPK activity compared with estradiol ([3]; pretreated 24 hours, FCS 2.5%): more potent

COc1cc2c(cc1O)CC[C@@H]1[C@@H]2CC[C@]2(C)[C@@H](O)CC[C@@H]12 [2-methoxyestradiol, estra-1,3,5 (10)-triene-2-methoxy-3,17-diol (17β)]
inhibition of FCS-induced ET-1 secretion ([1]; FCS 2.5%, 4 hours): 44% | inhibition of TNFα-induced ET-1 secretion ([1]; TNFα 10 ng/mL, 4 hours): 56% | inhibition of angiotensin II-induced ET-1 secretion [1, 4]: 39% | inhibition of thrombin-induced ET-1 secretion ([1]; thrombin 4 U/mL, 4 hours): 46% | reversal by ICI182780 of the compound's inhibitory effect on FCS-stimulated ET-1 secretion ([1]; FCS 2.5%, 4 hours): not | effectiveness in inhibiting basal and stimulated ET-1 secretion compared with estradiol [1]: more effective | effect on basal ET secretion [2]: inhibited | inhibition of FCS-induced MAPK activity [3, 5]: 46±4.7% | potency in inhibiting FCS-induced MAPK activity compared with estradiol ([3]; pretreated 24 hours, FCS 2.5%): more potent

C[C@]12CC[C@@H]3c4ccc(O)cc4CC[C@H]3[C@@H]1CC[C@H]2O [17α-estradiol]
effect on FCS-induced ET-1 synthesis ([1]; FCS 2.5%, 4 hours): unable to lower ET-1 secretion

O=c1c(-c2ccc(O)cc2)coc2cc(O)cc(O)c12 [Genistein, genistein]
concentrations at which inhibitory effects on ET-1 secretion were observed ([1]; FCS 2.5%-stimulated, 4 hours, tested 0.001 to 10 μmol/L): ≥ 1 µmol/L | reversal by ICI182780 of the compound's inhibitory effect on FCS-stimulated ET-1 secretion ([1]; FCS 2.5%, 4 hours): not reversed

C[C@]12CC[C@@H]3c4ccc(O)cc4C[C@@H](CCCCCCCCC[S+]([O-])CCCC(F)(F)C(F)(F)F)[C@H]3[C@@H]1CC[C@@H]2O (some centres unmarked) [ICI182780]
effect of compound alone on basal or FCS-stimulated ET-1 synthesis ([1]; 50 μmol/L): did not influence

COc1cccc(-c2cc(=O)c3ccccc3o2)c1N [PD98059]
MAPK activity ([3]; growth-arrested cells, FCS 2.5% for 10 minutes, unstimulated 0.187, PD98059 at 10 μmol/L): 0.7 μmol/min/mg protein

C[C@]12CC[C@@H]3c4ccc(OC(=O)c5ccccc5)cc4CC[C@H]3[C@@H]1CC[C@@H]2O [estradiol benzoate]
effect on FCS-induced ET-1 synthesis ([1]; FCS 2.5%, 4 hours): inhibited | reversal by ICI182780 of the compound's inhibitory effect on FCS-stimulated ET-1 secretion ([1]; FCS 2.5%, 4 hours): reversed

C[C@]12CC[C@@H]3c4ccc(O)cc4CC[C@H]3[C@@H]1CC[C@@H]2OC(=O)CCC1CCCC1 [estradiol cypionate]
effect on FCS-induced ET-1 synthesis ([1]; FCS 2.5%, 4 hours): inhibited | reversal by ICI182780 of the compound's inhibitory effect on FCS-stimulated ET-1 secretion ([1]; FCS 2.5%, 4 hours): reversed

CCCCC(=O)O[C@H]1CC[C@H]2[C@@H]3CCc4cc(O)ccc4[C@H]3CC[C@]12C [estradiol valerate]
effect on FCS-induced ET-1 synthesis ([1]; FCS 2.5%, 4 hours): inhibited | reversal by ICI182780 of the compound's inhibitory effect on FCS-stimulated ET-1 secretion ([1]; FCS 2.5%, 4 hours): reversed

C[C@]12CC[C@@H]3c4ccc(O)cc4CC[C@H]3[C@@H]1CC[C@@H]2O [estradiol, 17β-estradiol]
ET-1 secretion induced in response to FCS (percentage increase) in presence of compound ([1]; 1 nmol/L compound, FCS 2.5%, 4 hours, control 138±16%): 82±8% | ET-1 secretion induced in response to TNFα (percentage increase) in presence of compound ([1]; 1 nmol/L compound, TNFα 10 ng/mL, 4 hours, control 120±8%): 68±5% | ET-1 secretion induced in response to angiotensin II (percentage increase) in presence of compound ([1]; 1 nmol/L compound, angiotensin II 100 nmol/L, 4 hours, control 116±7%): 73±6% | ET-1 secretion induced in response to thrombin (percentage increase) in presence of compound ([1]; 1 nmol/L compound, thrombin 4 U/mL, 4 hours, control 98±6%): 53±4% | reversal by ICI182780 of the compound's inhibitory effect on FCS-stimulated ET-1 secretion ([1]; FCS 2.5%, 4 hours): completely blocked | inhibition at 0.001 µM ([1]; FCS 2.5%, 4 hours, read-out: inhibition of FCS-induced ET-1 secretion): 22% | inhibition at 0.001 µM ([1]; TNFα 10 ng/mL, 4 hours, read-out: inhibition of TNFα-induced ET-1 secretion): 26% | inhibition at 0.001 µM ([1]; angiotensin II 100 nmol/L, 4 hours, read-out: inhibition of angiotensin II-induced ET-1 secretion): 20% | inhibition at 0.001 µM ([1]; thrombin 4 U/mL, 4 hours, read-out: inhibition of thrombin-induced ET-1 secretion): 24% | effect on basal ET secretion [2]: inhibited | inhibition at 0.002 µM ([2]; Sus scrofa, Endothelial cell, 8 h, read-out: inhibition of basal synthesis of ET-1): 19 ± 2% | reversal by ICI182780 of the compound's inhibitory effect on FCS-induced MAPK activity ([3]; ICI182780 50 μmol/L pretreatment, compound 10 nmol/L): completely reversed | inhibition at 0.001 µM ([3]; Sus scrofa, 1 nmol/L, pretreated 24 hours, FCS 2.5%): 19 ± 2.6%

C[C@]12CC[C@@H]3c4ccc(O)cc4CC[C@H]3[C@@H]1C[C@@H](O)[C@@H]2O [estriol]
effect on FCS-induced ET-1 synthesis ([1]; FCS 2.5%, 4 hours): unable to lower ET-1 secretion

TNFα
induction of ET-1 secretion (percentage increase vs vehicle-treated controls) ([1]; 4 hours): 120±8%

angiotensin II [stimulatory agent for ET-1 secretion]
induction of ET-1 secretion (percentage increase vs vehicle-treated controls) ([1]; 4 hours): 116±7%

estrone sulfate
effect on FCS-induced ET-1 synthesis ([1]; FCS 2.5%, 4 hours): unable to lower ET-1 secretion

thrombin
induction of ET-1 secretion (percentage increase vs vehicle-treated controls) ([1]; 4 hours): 98±5%
